Test system: CP CML
Test: Part B: disease response in CP CML subjects
Type: in vivo, human
Source text: This was a Phase I/2, open-label, single-agent, multicenter, multi-dose, dose-escalation study in subjects with Philadelphia chromosome-positive Ph+ CML (CP CML, AP CML and BP CML) and Ph+ ALL. The primary objectives of this study were to determine the maximum tolerated dose (MTD; or recommended Phase 2 dose [RP2D]) of the compound of Formula I when administered orally and to evaluate its safety.
In this study, the dose-escalation cohort started with an accelerated titration study design (ATD) and shifted to a 3±3 design when subjects in the preceding ATD cohort experienced either grade 2 or higher adverse events (AEs) or dose-limiting toxicity (DLT) during Cycle 1 that was not clearly and incontrovertibly related to the underlying disease or concomitant medications. The DLT period consisted of 28 days (Cycle 1). Subjects experiencing DLTs were managed with dose delays and/or discontinuation and continued in the study until disease progression. Decisions to advance to a succeeding dose level occurred after the evaluation of safety and tolerability data for a given dose level.
Accordingly, the eligible subjects were treated in 4-week cycles of once daily self-administration of the compound of Formula I. The administration was after an overnight fast, or after maintaining approximately 2 hours of fasting before and after the dosing in all cycles.
For the cohorts, where the 3±3 design applies, 3 subjects were enrolled initially. If 2 of these subjects experienced a Grade 2 or more toxicity (that was not clearly and incontrovertibly related to the underlying disease or concomitant medications), subsequent cohorts were escalated according to smaller increments. Further, if there were no DLTs in the first 3 subjects, dose escalation to the next higher dose level was allowed to proceed. If 1 of the 3 subjects experienced a DLT, that dose level was expanded to 6 subjects (3 additional subjects were enrolled). If 2 subjects at a given dose level experienced a DLT, the MTD was considered to have been exceeded. The next lower dose level was expanded to 6 subjects, or if 6 subjects had already been enrolled and no more than 1 of the 6 subjects experienced a DLT, then this lower dose level was considered the MTD. Additional subjects were enrolled in dose escalation cohorts for further assessment of safety and efficacy of the compound of Formula 1 at doses that were tolerated (i.e., doses that have <2 DLTs in 6 enrolled subjects or <1 DLT in 3 enrolled subjects). Thus 204 mg was arrived at as MTD. A subject experiencing a DLT was allowed to continue therapy with a reduced dose. Subjects who experienced a DLT and recovered were treated at the next lower dose level until disease progression or other events requiring further dose reduction existed. For cohorts at Dose Level 2 or higher, a further dose reduction (i.e., up to 2 levels lower than their originally assigned dose) was implemented in the case of a further DLT or other non-DLT events requiring a dose reduction, if and when the event leading to dose reduction returned to Grade 1 or lower in severity. The reduced dose was re-escalated to the original or higher dose (i.e., the dose for which safety had been established in the dose escalation cohort) considering subject safety and response to the compound of Formula I. The subject was discontinued from treatment using the compound of Formula I, if dose reduction below 48 mg was required.
The study was conducted over a period of 60 months (5 years) which was divided in 28-days cycle. In the first two cycles, the dose administration was started on day 1 and the subject's assessments were performed on day 1, day 2, day 3, day 8, day 15 and day 22. From Cycle 3 onwards, the assessments were performed every 3 months (i.e., on day 28 of Cycle 3, followed by day 28 of Cycle 6 which was further followed by day 28 of Cycle 9). […]

Cc1ccc(C(=O)NNC(=O)c2c(C)cccc2Cl)cc1C#Cc1cnc2ccccc2c1 [compound of Formula I, N′-(2-chloro-6-methylbenzoyl)-4-methyl-3-[2-(3-quinolyl)ethynyl]-benzohydrazide]
2(66.7): Best Cytogenetic Response: Complete Response (48 mg (N = 3) ESC) | Best Cytogenetic Response: Major Cytogenetic Response (48 mg (N = 3) ESC) | Best Hematologic Response: Complete Response (48 mg (N = 3) ESC) | Best Hematologic Response: Major Hematologic Response (48 mg (N = 3) ESC) | Best Molecular Response: Complete Response (48 mg (N = 3) ESC) | Best Molecular Response: Major Response (48 mg (N = 3) ESC)
10(100): Best Hematologic Response: Complete Response (174 mg (N = 10) EXP) | Best Hematologic Response: Major Hematologic Response (174 mg (N = 10) EXP)
7(70.0): Best Cytogenetic Response: Major Cytogenetic Response (174 mg (N = 10) EXP)
2(50.0): Best Cytogenetic Response: Complete Response (66 mg (N = 4) ESC) | Best Cytogenetic Response: Major Cytogenetic Response (66 mg (N = 4) ESC) | Best Cytogenetic Response: Complete Response (126 mg (N = 4) ESC) | Best Cytogenetic Response: Major Cytogenetic Response (126 mg (N = 4) ESC)
1(33.3): Best Hematologic Response: No Response (48 mg (N = 3) ESC)
4(57.1): Best Hematologic Response: Complete Response (174 mg (N = 7) ESC) | Best Hematologic Response: Major Hematologic Response (174 mg (N = 7) ESC)
3(30.0): Best Cytogenetic Response: Minimal Response (174 mg (N = 10) EXP)
4(100): Best Hematologic Response: Complete Response (126 mg (N = 4) ESC) | Best Hematologic Response: Major Hematologic Response (126 mg (N = 4) ESC)
1(50.0): Best Cytogenetic Response: Major Cytogenetic Response (90 mg (N = 2) ESC) | Best Cytogenetic Response: No Response (90 mg (N = 2) ESC) | Best Cytogenetic Response: Partial Response (90 mg (N = 2) ESC) | Best Molecular Response: Major Response (90 mg (N = 2) ESC) | Best Molecular Response: No Response (90 mg (N = 2) ESC)
6(60.0): Best Cytogenetic Response: Complete Response (174 mg (N = 10) EXP)
2(28.6): Best Cytogenetic Response: Minimal Response (174 mg (N = 7) ESC) | Best Hematologic Response: No Response (174 mg (N = 7) ESC)
0: Best Cytogenetic Response: Minimal Response (12 mg (N = 1) ESC) | Best Cytogenetic Response: Minor Response (12 mg (N = 1) ESC) | Best Cytogenetic Response: No Response (12 mg (N = 1) ESC) | Best Cytogenetic Response: Partial Response (12 mg (N = 1) ESC) | Best Hematologic Response: No Evidence of Leukemia (12 mg (N = 1) ESC) | Best Hematologic Response: No Response (12 mg (N = 1) ESC) | Best Molecular Response: Complete Response (12 mg (N = 1) ESC) | Best Molecular Response: Major Response (12 mg (N = 1) ESC) | Best Cytogenetic Response: Minimal Response (48 mg (N = 3) ESC) | Best Cytogenetic Response: Minor Response (48 mg (N = 3) ESC) | Best Cytogenetic Response: No Response (48 mg (N = 3) ESC) | Best Cytogenetic Response: Partial Response (48 mg (N = 3) ESC) | Best Hematologic Response: No Evidence of Leukemia (48 mg (N = 3) ESC) | Best Molecular Response: No Response (48 mg (N = 3) ESC) | Best Cytogenetic Response: Minor Response (66 mg (N = 4) ESC) | Best Cytogenetic Response: Partial Response (66 mg (N = 4) ESC) | Best Hematologic Response: No Evidence of Leukemia (66 mg (N = 4) ESC) | Best Cytogenetic Response: Complete Response (90 mg (N = 2) ESC) | Best Cytogenetic Response: Minimal Response (90 mg (N = 2) ESC) | Best Cytogenetic Response: Minor Response (90 mg (N = 2) ESC) | Best Hematologic Response: No Evidence of Leukemia (90 mg (N = 2) ESC) | Best Hematologic Response: No Response (90 mg (N = 2) ESC) | Best Molecular Response: Complete Response (90 mg (N = 2) ESC) | Best Cytogenetic Response: Minor Response (126 mg (N = 4) ESC) | Best Cytogenetic Response: Partial Response (126 mg (N = 4) ESC) | Best Hematologic Response: No Evidence of Leukemia (126 mg (N = 4) ESC) | Best Hematologic Response: No Response (126 mg (N = 4) ESC) | Best Cytogenetic Response: No Response (174 mg (N = 7) ESC) | Best Cytogenetic Response: Partial Response (174 mg (N = 7) ESC) | Best Hematologic Response: No Evidence of Leukemia (174 mg (N = 7) ESC) | Best Cytogenetic Response: Minor Response (174 mg (N = 10) EXP) | Best Cytogenetic Response: No Response (174 mg (N = 10) EXP) | Best Hematologic Response: No Evidence of Leukemia (174 mg (N = 10) EXP) | Best Hematologic Response: No Response (174 mg (N = 10) EXP) | Best Cytogenetic Response: Minimal Response (204 mg (N = 6) ESC) | Best Cytogenetic Response: Minor Response (204 mg (N = 6) ESC) | Best Cytogenetic Response: No Response (204 mg (N = 6) ESC) | Best Hematologic Response: No Evidence of Leukemia (204 mg (N = 6) ESC)
3(75.0): Best Hematologic Response: Complete Response (66 mg (N = 4) ESC) | Best Hematologic Response: Major Hematologic Response (66 mg (N = 4) ESC) | Best Molecular Response: No Response (66 mg (N = 4) ESC) | Best Molecular Response: No Response (126 mg (N = 4) ESC)
1(25.0): Best Cytogenetic Response: Minimal Response (66 mg (N = 4) ESC) | Best Cytogenetic Response: No Response (66 mg (N = 4) ESC) | Best Hematologic Response: No Response (66 mg (N = 4) ESC) | Best Molecular Response: Complete Response (66 mg (N = 4) ESC) | Best Molecular Response: Major Response (66 mg (N = 4) ESC) | Best Cytogenetic Response: Minimal Response (126 mg (N = 4) ESC) | Best Cytogenetic Response: No Response (126 mg (N = 4) ESC) | Best Molecular Response: Complete Response (126 mg (N = 4) ESC) | Best Molecular Response: Major Response (126 mg (N = 4) ESC)
2(33.3): Best Cytogenetic Response: Partial Response (204 mg (N = 6) ESC)
4(66.7): Best Cytogenetic Response: Complete Response (204 mg (N = 6) ESC)
1(100): Best Cytogenetic Response: Complete Response (12 mg (N = 1) ESC) | Best Cytogenetic Response: Major Cytogenetic Response (12 mg (N = 1) ESC) | Best Hematologic Response: Complete Response (12 mg (N = 1) ESC) | Best Hematologic Response: Major Hematologic Response (12 mg (N = 1) ESC)
1 (10.0): Best Cytogenetic Response: Partial Response (174 mg (N = 10) EXP)
1(14.3): Best Cytogenetic Response: Minor Response (174 mg (N = 7) ESC) | Best Molecular Response: Complete Response (174 mg (N = 7) ESC)
1(10.0): Best Molecular Response: Complete Response (174 mg (N = 10) EXP) | Best Molecular Response: Major Response (174 mg (N = 10) EXP)
3(42.9): Best Cytogenetic Response: Complete Response (174 mg (N = 7) ESC) | Best Cytogenetic Response: Major Cytogenetic Response (174 mg (N = 7) ESC) | Best Molecular Response: Major Response (174 mg (N = 7) ESC) | Best Molecular Response: No Response (174 mg (N = 7) ESC)
2(100): Best Hematologic Response: Complete Response (90 mg (N = 2) ESC) | Best Hematologic Response: Major Hematologic Response (90 mg (N = 2) ESC)
9(90.0): Best Molecular Response: No Response (174 mg (N = 10) EXP)
6(100): Best Cytogenetic Response: Major Cytogenetic Response (204 mg (N = 6) ESC) | Best Hematologic Response: Complete Response (204 mg (N = 6) ESC) | Best Hematologic Response: Major Hematologic Response (204 mg (N = 6) ESC)
